For the assay, the system named is MCF-7 tumors. Put plainly: Tumor Growth Inhibition in mice bearing MCF-7 tumors treated with Compound 1 and/or ribociclib. Format: in vivo. The procedure: In the following experiment, mice bearing MCF-7 tumors were treated with either a vehicle control, Compound 1 alone, ribociclib alone, or with a combination of Compound 1 and ribociclib. MCF-7 were cultured in DMEM supplemented with 10% FBS. On the day of implantation, cells were washed 1× with phosphate-buffered saline (PBS). Following washing, cells were pelleted (5 min @ 1000 rpm, RT) and then counted with a hemocytometer. A cell concentration of 5×10^6 per mouse was re-suspended in an appropriate amount of PBS and 1:1 Matrigel. The suspension was kept on ice until implantation. Forty-eight hours prior to cell implantation, a 17-β estradiol pellet (0.36 mg 60-day slow release pellet) was be implanted subcutaneously between the scapulae of each Female Nu/j mouse. […] Once anesthetized, the mice were positioned ventral side up and anesthesia maintained through a fitted nose cone. The MCF-7 cell suspension was injected into the mammary fat pad at a volume of 100 μl containing 5×10^6 cells per mouse. Beginning 5 days post cell implantation, tumors were measured two times weekly (length×width) using a wireless digital calipers in conjunction with UWAVE-R to record measurements. […] The first day of treatment was designated “Day 1”. The mice were dosed either subcutaneously (SC), orally (PO), or by both dose routes, as put forth in the experimental designed summarized in Table 3. Doses were calculated by individual body weights. [table] The first group of mice (Group #1) were administered the vehicle control by oral administration once a day (QD). […] The fifth group of mice (Group #5) were administered Ribociclib at a dose of 35 mg/kg by oral administration once a day (QD). The sixth group of mice (Group #6) were administered Ribociclib at a dose of 70 mg/kg by oral administration once a day (QD). Twice weekly body weights and tumor measurements were recorded for the duration of the study. […] Upon euthanasia, a maximum volume terminal blood sample was obtained via cardiac puncture and split 200 μL in a K2EDTA MiniCollect tube for plasma separation and 420 μL in to a MiniCollect serum separator tube for half the mice for Clinical Chemistry analysis. For the other half of the mice, >200 μL of blood was collected in to K2EDTA MiniCollect tubes (LTT) for CBC analysis. The MiniCollect blood tubes for both plasma and serum were centrifuged at 8000 rpm for 5 minutes. The plasma was retained for biomarker analysis at −80° C., the serum and whole blood (LTT) were further analyzed. Additionally, tumor from the mice were dissected, weighed, and split into two pieces. Half of the tumor was placed into buffered formalin and stored at room temperature. Half of the tumor was snap-frozen in liquid N2, and stored at −80° C. […]

For the molecule `CN(C)C(=O)c1cc2cnc(Nc3ccc(N4CCNCC4)cn3)nc2n1C1CCCC1` [Ribociclib, ribociclib], the TGI % (day 14, Group 5: Ribociclib 35 mg/kg PO QD) came out at 57%; the TGI % (day 14, Group 6: Ribociclib 70 mg/kg PO QD) came to 70%; the TGI % (day 18, Group 5: Ribociclib 35 mg/kg PO QD (10 times the dose on day 16)) worked out at 60%; the TGI % (day 18, Group 6: Ribociclib 70 mg/kg PO QD (10 times the dose on day 16)) is 70%.

For the origin of these results see US20230404963A1, “COMBINATIONS OF METAP2 INHIBITORS AND CD4/6 INHIBITORS FOR THE TREATMENT OF CANCER” (SynDevRx, Inc., priority 2020, published 2023).
